In patent publication US20230012570A1, “BICYCLIC COMPOUND USED AS SELECTIVE ANDROGEN RECEPTOR MODULATOR” (MEDSHINE DISCOVERY INC., priority 2019, published 2023):
Like-named read-outs stand apart in the source and are kept apart here.

Experiments:
[1] = target: T1, androgen receptor (AR) (Homo sapiens, UniProt P10275); assay: Agonistic effect of test compounds on androgen receptor (AR), LiveBLAzer FRET reporter cell assay; assay type: cell-based
T1 sequence (P10275 1-920): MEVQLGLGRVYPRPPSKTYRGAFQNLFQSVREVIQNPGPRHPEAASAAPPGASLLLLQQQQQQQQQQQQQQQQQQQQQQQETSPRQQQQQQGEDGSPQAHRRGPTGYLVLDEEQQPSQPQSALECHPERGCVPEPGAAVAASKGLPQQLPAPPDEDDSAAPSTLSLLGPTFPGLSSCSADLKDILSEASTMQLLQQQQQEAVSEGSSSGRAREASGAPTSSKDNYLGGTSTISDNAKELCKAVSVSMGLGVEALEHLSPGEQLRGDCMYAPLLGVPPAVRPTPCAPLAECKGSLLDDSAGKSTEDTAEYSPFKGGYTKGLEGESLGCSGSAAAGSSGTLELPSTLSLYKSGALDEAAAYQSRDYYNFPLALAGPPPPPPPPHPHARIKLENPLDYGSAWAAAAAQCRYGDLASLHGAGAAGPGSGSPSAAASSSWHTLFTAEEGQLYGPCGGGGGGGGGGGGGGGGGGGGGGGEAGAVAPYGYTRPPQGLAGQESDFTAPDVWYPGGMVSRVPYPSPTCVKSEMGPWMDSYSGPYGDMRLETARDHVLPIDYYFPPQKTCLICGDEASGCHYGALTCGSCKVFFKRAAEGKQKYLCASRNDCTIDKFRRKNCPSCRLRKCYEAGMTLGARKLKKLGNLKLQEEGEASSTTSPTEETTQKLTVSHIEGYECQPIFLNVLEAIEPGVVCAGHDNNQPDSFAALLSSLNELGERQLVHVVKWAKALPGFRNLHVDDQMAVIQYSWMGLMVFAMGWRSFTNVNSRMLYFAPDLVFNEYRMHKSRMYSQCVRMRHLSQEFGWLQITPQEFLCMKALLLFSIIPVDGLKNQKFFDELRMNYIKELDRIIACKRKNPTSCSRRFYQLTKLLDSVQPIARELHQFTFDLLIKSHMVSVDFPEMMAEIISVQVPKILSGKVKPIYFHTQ
Description: Experimental Embodiment 1: Agonistic Effect of Test Compounds on Androgen Receptor (AR)
1. Preparation of Compounds, Placing in Plates:
1.1 Preparation of compounds: the test compounds were diluted to the working concentration, and each compound was diluted by 4 times with Echo for 10 concentration gradients, and the compounds were added to a 384-well cell plate according to the microplate layout diagram, with 200 nL per well;
1.2 AR cell assay medium: 87% Opti-MEM (reduced serum medium), 10% Dialyzed FBS (dialyzed fetal bovine serum), 1% NEAA (non-essential amino acids), 1% sodium pyruvate and 1% penicillin-streptomycin;
1.3 culture medium, trypsin and Dulbecco's phosphate buffer were preheated in a 37° C. water bath;
1.4 the original medium in the cell culture flask was removed, and the cells were washed once with 6 mL of Dulbecco's phosphate buffer;
1.5 3.5 mL of trypsin was added to the cell culture flask, and the flask was gently shaken to make the trypsin fully contact with the cells, the trypsin was removed; after aspirating the trypsin, the culture flask was placed in a 37° C. incubator containing 5% CO2 for about 1 minute;
1.6 the cells were resuspended with 10 mL of cell detection medium, and about 0.8 mL of cell suspension was taken out for counting (ViCell XR)
1.7 the cell suspension was diluted with culture medium to 2.5×10^5 cells per mL;
1.8 40 !IL of cell suspension was added to each well of the cell plate, and 40 μL of cell culture medium was added to the other wells, and the cells were incubated in a 37° C. incubator containing 5% CO2 for 16 hours.
2. Reading the Board and Analyzing Data:
2.1 Preparation of solution A: 182 μL of DMSO was added to 200 μg of LiveBLAzer™-FRET B/G/g substrate (CCF4-AM). The solution A was packaged and stored in a refrigerator at −20° C.;
2.2 preparation of 6×substrate buffer: 15 μL of solution A was added to 150 μL of solution B, and the mixture was vortexed evenly, then 2335 μL of solution C was added to the above solution and vortexed evenly;
2.3 the cell culture plate was taken out, and 8μL of 6×substrate buffer was added to each well, shaken for 1 minute, and centrifuged at 1000 rpm for 10 seconds; after sealing the membrane, the cells were incubated at 23° C. for 2 hours, and the plate was read with Envision, and the curve EC50 value was fitted by Prism software.

[2] = Pharmacokinetic test in male SD rats, intravenous and intragastric administration, plasma LC-MS/MS; assay type: in vivo; details: rat; for Vd: read-out: Apparent volume of distribution Vdss; for clearance: read-out: Clearance rate Cl; for AUC(0-inf): read-out: Curve area (0-inf) AUC0-inf; for AUC(0-t): read-out: Curve area (0-t) AUC0-last; for half-life: read-out: Half-life T1/2 (converted); for bioavailability: oral, intragastric vs intravenous administration, read-out: Bioavailability F; for Cmax: read-out: Blood drug concentration Cmax; for Tmax: read-out: Peak time Tmax
Source text: Experimental Embodiment 2: Pharmacokinetic Test of the Compounds of the Present Disclosure
Male SD rats were used as test animals, and LC-MS/MS method was used to determine the drug concentrations in plasma of rats at different time after intravenous and intragastric administration of compound 1A, compound 3A and compound 8A. To study the pharmacokinetic behavior of the compounds in rats and to evaluate their pharmacokinetic characteristics.
2.1 Test Drugs: Compound 1A, Compound 3A and Compound 8A
2.2 Test animals: 12 healthy adult male SD rats, divided into 6 groups with 2 rats in each group. The animal was purchased from Shanghai Sippr-BK laboratory animal Co. Ltd., and the animal production license number was SOCK (Shanghai) 2013-0016.
An appropriate amount of sample was weighed, and appropriate amounts of DMSO, polyethylene glycol-15 hydroxystearate and water were added in turn according to the volume ratio of 10:10:80, and the clarified state of 0.2 mg/mL was reached after stirring and sonication for intravenous administration.
An appropriate amount of sample was weighed and dissolved in 5% Tween 80+90% polyethylene glycol 400+5% polyvinylpyrrolidone K30 solution, and the clarified state of 0.5 mg/mL was reached after stirring and sonication for intragastric administration.
12 male SD rats were divided into 6 groups, and after fasting overnight, groups 1-3 were administered intravenously with a volume of 5 mL/kg; groups 4-6 were administered by gavage with a volume of 10 mL/kg.
After compound 1A, compound 3A and compound 8A were intravenously administered to SD rats, 40 μL of blood was collected at 0.0833, 0.25, 0.5, 1, 2, 4, 8 and 24 hours, respectively, and placed in a test tube containing 2 μL of EDTA-K2. After compound 1A and compound 3A were administered by gavage, 40 μL of blood was collected at 0.25, 0.5, 1, 2, 4, 8 and 24 hours, respectively, and placed in a test tube containing 2 μL of EDTA-K2. The tubes were centrifuged at 4000 rpm for 15 minutes to separate the plasma and stored at −60° C. Animals were allowed to eat 2 hours after administration.
The content of the test compounds in the plasma of rats after intravenous and intragastric administration was determined by LC-MS/MS method. The linear range of the method was 2.00-6000 nmol/L; plasma samples were analyzed after acetonitrile precipitation protein treatment.

[3] = AR cells, 16 hours incubation, 10 concentrations, read-out: EC50, agonist activity on androgen receptor
[4] = intravenous administration, dose 1.1 (1A), 0.69 (3A), 0.716 (8A) mg/kg
[5] = po, intragastric administration, dose 4.92 (1A), 4.2 (3A), 4.59 (8A) mg/kg

SMILES: N#Cc1c(F)cc(N2CC3CC3C2C(O)C(F)(F)F)cc1Cl (single isomer, unassigned) [Compound 5A]
- EC50 [1]: 0.37 nM

SMILES: N#Cc1ccc(N2CC3CC3C2C(O)C(F)(F)F)cc1C(F)F (stereo not shown) [Mixture of compounds 2A and 2B]
- EC50 [1]: 8.8 nM

SMILES: N#Cc1ccc(N2C[C@@H]3COC[C@@H]3[C@H]2C(O)C(F)(F)F)cc1C(F)(F)F (single isomer, unassigned) [Compound 14A]
- EC50 [1]: 0.39 nM

SMILES: N#Cc1ncc(N2CC3C(C2C(O)C(F)(F)F)C3(F)F)cc1C(F)(F)F (stereo not shown) [Mixture of compounds 12A and 12B]
- EC50 [1, 3]: 6.33 nM

SMILES: N#Cc1ncc(N2CC3CC3C2C(O)C(F)(F)F)cc1C(F)(F)F (single isomer, unassigned) [Compound 8A]
- EC50 [1, 3]: 3.25 nM
- Vd [2, 4]: 2.22 L/kg
- clearance [2, 4]: 6.99 mL/min/kg
- AUC(0-inf) [2, 4]: 4.87 µM·h
- AUC(0-t) [2, 4]: 4.78 µM·h
- half-life [2, 4]: 4.18 h
- bioavailability [2]: 41%
- Cmax [2, 5]: 1660 nM
- AUC(0-inf) [2, 5]: 12.9 µM·h
- AUC(0-t) [2, 5]: 12.7 µM·h
- half-life [2, 5]: 3.69 h
- Tmax [2, 5]: 4 h

SMILES: N#Cc1c(F)cc(N2CC3CC3C2C(O)C(F)(F)F)cc1C(F)(F)F (single isomer, unassigned) [Compound 7A]
- EC50 [1]: 0.53 nM

SMILES: N#Cc1cc(N2CC3CC3C2C(O)C(F)(F)F)cc(F)c1C#N (stereo not shown) [Mixture of compounds 6A and 6B]
- EC50 [1, 3]: 4.3 nM

SMILES: N#Cc1ncc(N2CC3CC3C2C(O)C(F)(F)F)cc1OC(F)F (single isomer, unassigned) [Compound 9A]
- EC50 [1, 3]: 47.8 nM

SMILES: N#Cc1ccc(N2CC3CC3C2C(O)C(F)(F)F)cc1C(F)(F)F (single isomer, unassigned) [Compound 1A]
- EC50 [1]: 0.81 nM
- Vd [2, 4]: 1.43 L/kg
- clearance [2, 4]: 20.6 mL/min/kg
- AUC(0-inf) [2, 4]: 2.5 µM·h
- AUC(0-t) [2, 4]: 2.47 µM·h
- half-life [2, 4]: 1.37 h
- bioavailability [2]: 11%
- Cmax [2, 5]: 223 nM
- AUC(0-t) [2, 5]: 1.24 µM·h
- Tmax [2, 5]: 4 h

SMILES: COc1cc(N2CC3CC3C2C(O)C(F)(F)F)cnc1C#N (single isomer, unassigned) [Compound 11A]
- EC50 [1, 3]: 135 nM

SMILES: N#Cc1ncc(N2CC3CC3C2C(O)C(F)(F)F)cc1Cl (single isomer, unassigned) [Compound 10A]
- EC50 [1, 3]: 55.8 nM
